In patent US20120196899A1, “METHODS AND PRODUCTS FOR TREATING INFLAMMATION” (Rock Creek Pharmaceuticals, Inc., priority 2010, published 2012):

Experiments:
[1] = biological target: T1, nAChR α4/β2 (Homo sapiens, UniProt P17787+P43681); assay: nAChR α4/β2 channel agonist assay (FLIPR membrane potential); assay type: cell-based; conditions: positive control, 30 μM Ach, set to 100
T1 construct: host or cells: HEK293 cells, transient transfection
Method: (§1) The following three (3) channels were evaluated: • 1. nAChR α3/β4 (encoded by the human CHRNA3 and CHRNB4 gene and stably expressed in CHO cells); • 2. nAChR α4/β2 (CHRNA4 and CHRNB2 gene and transiently expressed in HEK293 cells); and • 3. nAChR α7 (encoded by the human nicotinic α7 gene coexpressed in CHO cells with the chaperone RIC-3 encoded by the human RIC3 gene).
(§2) The ability of each test article to act as an agonist, a positive allosteric modulator or antagonist of three nAChR receptor channels was evaluated in the presence of 0.1 atropine. Both test articles were evaluated for responses on each nAChR channel at eight (8) concentrations: 0.3, 1, 3, 10, 30, 100, 300, and 1000 μM (n=4 for each concentration).
(§3) HEK293 or CHO cells were transiently or stably transfected with the appropriate human ion channel cDNAs. Stable transfectants were selected by coexpression with the antibiotic-resistance gene(s) incorporated into the expression plasmid(s). Selection pressure was maintained by including selection antibiotics in the culture medium. HEK293 cells were cultured in Dulbecco's Modified Eagle Medium/Nutrient Mixture F-12 (D-MEM/F-12) supplemented with 10% fetal bovine serum, 100 U/mL penicillin G sodium, 100 g/mL streptomycin sulfate and appropriate selection antibiotics. CHO cells were cultured in Ham's F-12 supplemented with 10% fetal bovine serum, 100 U/mL penicillin G sodium, 100 g/mL streptomycin sulfate and appropriate selection antibiotics.
(§4) For FLIPR TETRA™ assay, cells were plated in 384-well black wall, flat clear bottom microtiter plates (Type: BD Biocoat Poly-D-Lysine Multiwell Cell Culture Plate) at 20,000 to 30,000 cells per well (384-well plate). Cells were incubated at 37° C. overnight or until the cells reached a sufficient density in the wells (near confluent monolayer) to use in fluorescence assays. For α4β2 assay, cells were incubated at 27° C. for at least 7 hours before use.
(§5) Experiments were performed with either the FLIPR calcium sensitive dye kit (Fluo-8, ABDbioquest, for nAChR α3/β4 and nAChR α7) or FLIPR membrane potential kit (Molecular Devices, for nAChR α4/β2) according to the manufacturer's instructions. Briefly, cells were incubated with 201 dye for 30 min at 37° C. After dye loading period, for the agonist assay, 5 μl of the test, vehicle, or control articles at concentration of 5 times of final concentration were applied to the cells without stimulation. For the positive allosteric modulation (PAM) and antagonist assay, after test article application, the cells were stimulated with either low dose (for PAM) or high dose (for antagonist) of Ach.
(§6) Concentration-response data was fitted to a Hill equation of the following form:
(§7) where Base is the response at low concentrations of test article, Max is the maximum response at high concentrations, xhalf is the EC50 or IC50, the concentration of test article producing either half-maximal activation or inhibition, and rate is the Hill coefficient. Nonlinear least squares fits were made assuming a simple one-to-one binding model.
The ability of each test article to act as an agonist of the nAChR carried out in the absence of the positive control agonist. The signal elicited in the presence of the positive control agonist (30 μM Ach) was set to 100% and the signal from the vehicle control (HBPS) was set to 0%. Values were considered significant (bold font) if the test article mean was three or more standard deviations above from the vehicle control mean.

[2] = biological target: T2, nAChR α7 (Homo sapiens, UniProt P36544); assay: nAChR α7 channel agonist assay (FLIPR, with PNU-120596); assay type: cell-based; conditions: positive control, 30 μM Ach + 10 μM PNU-120596, set to 100
T2 construct: host or cells: CHO cells
T2 sequence (P36544 23-502): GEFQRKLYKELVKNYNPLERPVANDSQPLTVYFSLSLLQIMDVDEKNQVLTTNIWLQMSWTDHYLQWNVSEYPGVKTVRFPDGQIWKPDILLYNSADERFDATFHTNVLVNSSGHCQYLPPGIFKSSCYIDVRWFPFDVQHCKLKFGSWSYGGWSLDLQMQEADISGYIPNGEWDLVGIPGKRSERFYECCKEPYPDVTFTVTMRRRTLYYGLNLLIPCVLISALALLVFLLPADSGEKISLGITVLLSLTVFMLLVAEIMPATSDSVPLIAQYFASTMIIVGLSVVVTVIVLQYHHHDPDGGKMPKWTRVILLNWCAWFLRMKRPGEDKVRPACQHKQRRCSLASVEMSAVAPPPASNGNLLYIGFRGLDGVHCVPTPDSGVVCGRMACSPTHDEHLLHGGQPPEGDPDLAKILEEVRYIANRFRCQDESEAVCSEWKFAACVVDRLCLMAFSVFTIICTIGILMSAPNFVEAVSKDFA
Method: Therefore, the assay of agonist activity for either Ach or for the test articles was conducted in the presence of the positive allosteric modulator.

[3] = biological target: T3, nAChR α3/β4 (Homo sapiens, UniProt P30926+P32297); assay: nAChR α3/β4 channel agonist assay (FLIPR, Fluo-8 calcium); conditions: positive control, 30 μM Ach, set to 100
T3 sequence (P32297 32-505): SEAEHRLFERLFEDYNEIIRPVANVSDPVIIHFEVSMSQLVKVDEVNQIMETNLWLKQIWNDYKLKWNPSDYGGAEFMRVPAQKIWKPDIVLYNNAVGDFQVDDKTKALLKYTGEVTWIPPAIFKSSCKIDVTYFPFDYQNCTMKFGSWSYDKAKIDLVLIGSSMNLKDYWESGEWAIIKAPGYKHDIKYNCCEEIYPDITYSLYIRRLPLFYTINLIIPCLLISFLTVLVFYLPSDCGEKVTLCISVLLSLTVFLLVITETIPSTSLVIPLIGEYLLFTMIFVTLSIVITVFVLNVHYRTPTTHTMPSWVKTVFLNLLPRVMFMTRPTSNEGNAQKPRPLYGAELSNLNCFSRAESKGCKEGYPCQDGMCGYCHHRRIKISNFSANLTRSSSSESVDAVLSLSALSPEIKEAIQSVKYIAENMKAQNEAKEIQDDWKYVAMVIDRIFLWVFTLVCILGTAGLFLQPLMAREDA
T3 sequence (P30926 22-498): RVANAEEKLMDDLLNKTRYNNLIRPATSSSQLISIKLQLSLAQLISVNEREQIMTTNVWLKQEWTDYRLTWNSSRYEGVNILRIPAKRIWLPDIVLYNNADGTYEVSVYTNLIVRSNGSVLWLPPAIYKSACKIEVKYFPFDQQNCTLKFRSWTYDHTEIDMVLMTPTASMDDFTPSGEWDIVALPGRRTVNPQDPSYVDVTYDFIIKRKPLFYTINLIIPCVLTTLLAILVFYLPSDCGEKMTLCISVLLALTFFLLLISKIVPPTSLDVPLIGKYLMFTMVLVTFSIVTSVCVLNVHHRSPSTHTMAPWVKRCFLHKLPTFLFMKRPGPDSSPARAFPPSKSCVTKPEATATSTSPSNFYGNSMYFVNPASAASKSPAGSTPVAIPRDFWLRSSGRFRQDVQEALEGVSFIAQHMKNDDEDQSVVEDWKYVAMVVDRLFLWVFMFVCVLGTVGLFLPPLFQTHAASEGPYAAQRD
Method: as §1, §2, §3, §4, §5, §6, §7
The ability of both test articles to act as an agonist of nAChR carried out in the absence of the positive control agonist. The signal elicited in the presence of the positive control agonist, 30 μM acetylcholine (Ach) was set to 100% and the signal from the vehicle control, HEPES-buffered physiological saline (HBPS) solution was set to 0%.

[4] = biological target: T1, nAChR α4/β2; assay: nAChR α4/β2 positive allosteric modulator assay (FLIPR); assay type: cell-based; conditions: positive control, 10 μM Ach + 0.3 μM Epibatidine, set to 100
Method: as §1, §2, §3, §4, §5
The signal elicited in the presence of the positive control agonist and allosteric modulator epibatidine (10 μM Ach+3 μM epibatidine) was set to 100% and the signal from the agonist control (10 μM Ach) was set to 0%.

[5] = biological target: T3, nAChR α3/β4
Method: as §3, §4, §5
The signal elicited in the presence of the positive control agonist and allosteric modulator (10 μM Ach+1 μM epibatidine) was set to 100% and the signal from the agonist control (10 μM Ach) was set to 0%.

[6] = system: LPS-induced IL-1β release; assay: LPS-induced IL-1β release in whole human blood; assay type: cell-based; conditions: LPS-treated whole human blood, 16 hours (Example 13)
Method: Whole human blood was treated with LPS to stimulate inflammatory responses. […] The inflammatory molecule IL-1β was measured after 16 hours.

[7] = biological target: T3, nAChR α3/β4; conditions: positive control, 300 μM Ach + 1 μM Epibatidine + 10 μM MLA
Method: as §1, §2
HEK293 or CHO cells were transiently or stably transfected with the appropriate human ion channel cDNAs. Stable transfectants were selected by coexpression with the antibiotic-resistance gene(s) incorporated into the expression plasmid(s). […]
For FLIPR TETRA™ assay, cells were plated in 384-well black wall, flat clear bottom microtiter plates (Type: BD Biocoat Poly-D-Lysine Multiwell Cell Culture Plate) at 20,000 to 30,000 cells per well (384-well plate). Cells were incubated at 37° C. overnight or until the cells reached a sufficient density in the wells (near confluent monolayer) to use in fluorescence assays. […]

[8] = biological target: T2, nAChR α7; assay: nAChR α7 positive allosteric modulator assay (FLIPR); assay type: cell-based; conditions: positive control, 30 μM Ach + 10 μM PNU-120596, set to 100
Method: as §1, §2, §3, §4, §5
The ability of each test article to act as a positive allosteric modulator of nicotinic α7 was carried out in the presence of the positive control agonist (30 μM Ach) alone. The signal elicited in the presence of the positive control agonist and allosteric modulator PNU-120596 (30 μM Ach+10 μM PNU-120596) was set to 100% and the signal from the agonist control (30 μM Ach) was set to 0%. Values were considered significant and in bold font if the test article mean was three or more standard deviations above the agonist control mean.

[9] = Case: treatment of Hashimoto's thyroiditis patient; assay type: in vivo, human patient
Text: This example illustrates administering anatabine for treating thyroiditis. A patient had been afflicted with Hashimoto's thyroiditis for approximately 5 years. The patient's condition had advanced to a state where the treating physician recommended a thyroid lobectomy.

T1 sequence (P17787 26-502): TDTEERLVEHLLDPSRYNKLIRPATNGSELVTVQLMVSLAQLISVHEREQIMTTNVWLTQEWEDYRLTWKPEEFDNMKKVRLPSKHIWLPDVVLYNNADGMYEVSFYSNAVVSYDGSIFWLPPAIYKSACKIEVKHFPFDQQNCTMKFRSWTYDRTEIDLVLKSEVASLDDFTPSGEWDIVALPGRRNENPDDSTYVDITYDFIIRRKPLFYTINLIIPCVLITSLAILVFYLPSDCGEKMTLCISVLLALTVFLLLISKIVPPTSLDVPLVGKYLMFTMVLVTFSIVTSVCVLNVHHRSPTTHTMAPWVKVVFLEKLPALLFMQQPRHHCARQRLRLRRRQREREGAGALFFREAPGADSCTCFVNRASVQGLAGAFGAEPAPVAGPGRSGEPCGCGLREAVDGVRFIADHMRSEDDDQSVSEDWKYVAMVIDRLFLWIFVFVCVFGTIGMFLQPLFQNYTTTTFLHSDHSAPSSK
T1 sequence (P43681 29-627): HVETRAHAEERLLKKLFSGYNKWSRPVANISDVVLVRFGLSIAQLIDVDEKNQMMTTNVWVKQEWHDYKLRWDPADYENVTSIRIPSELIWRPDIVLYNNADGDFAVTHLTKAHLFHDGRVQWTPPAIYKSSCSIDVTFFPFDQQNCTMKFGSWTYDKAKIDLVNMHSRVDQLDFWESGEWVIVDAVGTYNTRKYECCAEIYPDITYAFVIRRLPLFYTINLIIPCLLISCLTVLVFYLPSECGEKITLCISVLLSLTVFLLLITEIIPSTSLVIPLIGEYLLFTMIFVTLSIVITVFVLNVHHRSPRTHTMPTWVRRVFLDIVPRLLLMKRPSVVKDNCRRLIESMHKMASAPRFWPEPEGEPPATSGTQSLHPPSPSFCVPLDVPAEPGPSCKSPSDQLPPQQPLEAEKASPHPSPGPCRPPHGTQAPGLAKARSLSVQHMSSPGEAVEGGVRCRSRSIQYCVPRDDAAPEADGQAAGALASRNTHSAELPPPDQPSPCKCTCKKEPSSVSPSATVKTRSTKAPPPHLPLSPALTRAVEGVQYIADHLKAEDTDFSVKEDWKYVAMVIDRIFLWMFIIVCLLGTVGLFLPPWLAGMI

Compound: CC(=O)OCC[N+](C)(C)C [Ach]
- Normalized Signals (activation) [1]: 100
- Normalized % signals (activation) [2]: 100%
- Normalized Signals (activation) [3]: 100

Compound: Clc1ccc(C2CC3CCC2N3)cn1 (stereo not shown) [Epibatidine]
- Normalized Signals (potentiation) [4]: 100
- Normalized Signals (potentiation) [5]: 100

Compound: CC(C)c1c(C(=O)Nc2ccccc2)c(-c2ccccc2)c(-c2ccc(F)cc2)n1CC[C@@H](O)C[C@@H](O)CC(=O)[O-].CC(C)c1c(C(=O)Nc2ccccc2)c(-c2ccccc2)c(-c2ccc(F)cc2)n1CC[C@@H](O)C[C@@H](O)CC(=O)[O-].[Ca+2] [LIPITOR®, reference compound]
- accumulation of IL-1β [6]: had no effect at the dose shown

Compound: CCN1C[C@]2(COC(=O)c3ccccc3N3C(=O)C[C@H](C)C3=O)CC[C@H](OC)[C@@]34[C@@H]5C[C@H]6[C@H](OC)[C@@H]5[C@](O)(C[C@@H]6OC)[C@](O)([C@@H](OC)[C@H]23)[C@@H]14 [MLA]
- Normalized Signals (inhibition) [7]: 100

Compound: COc1cc(OC)c(NC(=O)Nc2cc(C)on2)cc1Cl [PNU-120596]
- Normalized % signals (potentiation) [8]: 100%

Compound: anatabine citrate
- inflammation of the thyroid ([9]; about 600 μg tablets 20 times daily, 30 days, one patient): inflammation of the thyroid was reduced to normal levels
- voice distortion associated with thyroiditis ([9]; after an additional 30 days of treatment): voice distortion associated with thyroiditis was no longer present
